From patent publication US8293256B2, “Sulfamide derivatives and cosmetic use thereof” (L'Oreal, priority 2004, dated 2012)

How the values were obtained:
stratum corneum [1] = experiment: Dermometer: mechanical measurement of the plasticizing effect (modulus of elasticity); conditions: 30° C., 75% relative humidity, 3% aqueous solution (compounds 9 and 15 in isopropyl N-lauroyl sarcosinate), mean ± standard deviation, 6 to 10 samples
Experimental: (§1) Two tests were performed to evaluate the moisturizing potential of the compounds of the invention formulated in an aqueous 3% solution (except for compounds 9 and 15, which were evaluated in a solution of isopropyl N-lauroyl sarcosinate).
Dermometer, mechanical measurement of the plasticizing effect (described by J. de Rigal, J-L. Leveque, International Journal of Cosmetic Science, 1982, 247-260),
The tests carried out were performed under standard conditions on stratum corneum in a room with regulated temperature and humidity (T=30° C. and RH=75%). The modulus of elasticity measurements are performed on each control specimen and then 2 hours and 20 hours after application of the treatment. The relative variation in the modulus allows assessment of the plasticizing effect of the active agent on the stratum corneum.
The mean and the standard deviation were calculated on 6 to 10 samples.

stratum corneum [2] = experiment: Transepidermal Water Loss (TWL) across isolated defatted stratum corneum (Evaporimeter EP1); conditions: 40% relative humidity, 30° C., 3% aqueous solution (compounds 9 and 15 in isopropyl N-lauroyl sarcosinate), mean ± standard deviation, 8 samples
Experimental: as §1
Transepidermal Water Loss (TWL), evaluation of the changes in barrier function of the stratum corneum.
Transepidermal water loss is a physiological phenomenon of diffusion of water vapour across the horny layer. It results from the presence of a high pressure gradient of water vapour between the internal and external media of the body. The TWL depends on the integrity of the barrier function of the stratum corneum. The machine evaluating the TWL (Evaporimeter EP1, Servomed) measures the flow of water that diffuses passively across the stratum corneum (g/m^2/h).
The isolated stratum is placed (inner face) on a water tank and equilibrated in a room regulated at 40% relative humidity (T=30° C.). Before the measurement, the stratum corneum is defatted via a two-hour treatment in a mixture of chloroform and methanol (2 v/lv). For each measurement, the TWL is measured on the stratum corneum before treatment and then 2 and 20 hours after application of the treatment. […] The measurements are analysed in pairs. […]
The mean and the standard deviation were calculated on 8 samples distributed over 2 batches of stratum corneum.

## NC(N)=O [3% urea in water, urea]
Stratum corneum [1]; 2 h after application
  Relative variation in the modulus of elasticity of stratum corneum: −72 ± 9%
Stratum corneum [1]; 20 h after application
  Relative variation in the modulus of elasticity of stratum corneum: −83 ± 7%
Stratum corneum [2]; 2 h after application
  Relative variation of the TWL measurements: 64.3 ± 26.9%
Stratum corneum [2]; 20 h after application
  Relative variation of the TWL measurements: 48.3 ± 24.5%

## NS(=O)(=O)NCCOS(N)(=O)=O [Compound 17, 2-[(aminosulfonyl)amino]ethyl sulfamate]
other
  melting point: 78 to 82 °C

## C[Si](C)(C)C(NS(N)(=O)=O)[Si](C)(C)C
other
  melting point: 76 to 77.5 °C
